The text below walks through data of PMC8824312 (Bioorganic chemistry, 2021).

For series [1], the target named is T1, Salicylate hydroxylase (NahG) (Pseudomonas putida, UniProt P23262).
T1 sequence (P23262 1-434): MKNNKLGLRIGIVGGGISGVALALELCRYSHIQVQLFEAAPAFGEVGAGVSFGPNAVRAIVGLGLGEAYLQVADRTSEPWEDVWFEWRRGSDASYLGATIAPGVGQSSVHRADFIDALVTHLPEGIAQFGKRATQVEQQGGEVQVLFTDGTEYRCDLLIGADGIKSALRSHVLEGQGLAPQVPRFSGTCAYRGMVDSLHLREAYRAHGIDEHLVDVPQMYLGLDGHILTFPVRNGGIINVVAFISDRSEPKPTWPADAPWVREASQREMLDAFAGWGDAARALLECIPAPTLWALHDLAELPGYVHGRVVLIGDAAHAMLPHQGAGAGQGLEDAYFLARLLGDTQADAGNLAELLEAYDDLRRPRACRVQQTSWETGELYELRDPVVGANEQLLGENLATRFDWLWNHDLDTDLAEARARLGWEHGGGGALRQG
Kind of series: fluorometric titration. In kind it is binding.

The target in series [2] is T1, Salicylate hydroxylase (NahG). Kind of series: fluorometric titration.
Substrate in series [3]: NC(=O)C1=CN([C@@H]2O[C@H](COP(=O)(O)OP(=O)(O)OC[C@H]3O[C@@H](n4cnc5c(N)ncnc54)[C@H](O)[C@@H]3O)[C@@H](O)[C@H]2O)C=CC1
The series is described as follows: initial rate of NADH consumption, spectrophotometric. Format: biochemical, Pseudomonas putida. The following applies: pH 8.5, I = 0.21 M (NaCl), 25 °C, salicylate, FAD as cofactor.

As a reminder, the Kd is the concentration at which binding is half-saturated. Lower therefore signals tighter binding. One may read the Km as the concentration of substrate that gives half-maximal velocity.

Read-outs that look alike come from different tables or passages of the source.

`O=C(O)c1ccccc1O` [salicylate] yielded a Kd in series [1] of 280 ± 30 nM.

For the molecule `Cc1cc2nc3c(=O)[nH]c(=O)nc-3n(C[C@H](O)[C@H](O)[C@H](O)COP(=O)(O)OP(=O)(O)OC[C@H]3O[C@@H](n4cnc5c(N)ncnc54)[C@H](O)[C@@H]3O)c2cc1C` [Flavin adenine dinucleotide], in series [2], the affinity, expressed as Kd, was 36 ± 8 nM.

In series [2], `Cc1cc2nc3c(=O)[nH]c(=O)nc-3n(C[C@H](O)[C@H](O)[C@H](O)COP(=O)(O)O)c2cc1C` [riboflavin 5′-monophosphate] returned a dissociation constant (Kd) of 2200 ± 200 nM.

B1: Salicylate hydroxylase (NahG) (Pseudomonas putida) (protein)
chain: MKNNKLGLRIGIVGGGISGVALALELCRYSHIQVQLFEAAPAFGEVGAGVSFGPNAVRAIVGLGLGEAYLQVADRTSEPWEDVWFEWRRGSDASYLGATIAPGVGQSSVHRADFIDALVTHLPEGIAQFGKRATQVEQQGGEVQVLFTDGTEYRCDLLIGADGIKSALRSHVLEGQGLAPQVPRFSGTCAYRGMVDSLHLREAYRAHGIDEHLVDVPQMYLGLDGHILTFPVRNGGIINVVAFISDRSEPKPTWPADAPWVREASQREMLDAFAGWGDAARALLECIPAPTLWALHDLAELPGYVHGRVVLIGDAAHAMLPHQGAGAGQGLEDAYFLARLLGDTQADAGNLAELLEAYDDLRRPRACRVQQTSWETGELYELRDPVVGANEQLLGENLATRFDWLWNHDLDTDLAEARARLGWEHGGGGALRQG
With B1, the Km in series [3] amounted to 27 µM.
